Experimental data taken from patent US9307761B2, “Microbial composition” (Rohm and Haas Company, priority 2011, dated 2016).
Like-named read-outs stand apart in the source and are kept apart here.

What was measured:
Type in all cases: cell-based
[1] = test system: Escherichia coli (E. coli—ATCC #10536); assay: Automated assessment of efficacy in model surfactant medium (2.85% sodium cocoyl glycinate and 1.85% sodium lauroamphoacetate), 15 seconds exposure, delta OD450/OD590; details: for No. of replicates showing growth (out of 4) / Δ OD 450 nm = OD450 (time = 16 hours) − OD450 (time zero), Mean / Δ OD 590 nm OD590 (time = 16 hours) − OD590 (time zero), Mean: model surfactant solution, 15 s exposure; for MBC: Escherichia coli, ATCC10536, 15 s, in 2.85% sodium cocoyl glycinate + 1.85% sodium lauroamphoacetate solution at pH 10, E. coli, read-out: MBC (minimum biocidal concentration)
Protocol: Micobiocidal Activity of Actives as Per the Invention in a Model Surfactant Medium Test Methodology for Automated Assessment of Efficacy in Surfactant Base
Solutions were prepared such that the concentrations of the surfactant components and test actives were 1.1×the final desired concentration in order to allow for dilution with the bacterial inoculum in the test. The solutions were manually adjusted to […] by dropwise addition of sodium hydroxide solution, as measured with a pH meter at ambient temperature.
Tests were conducted using standard microtiter plate assays using an automated liquid handling system, 270 μl of the surfactant test solution was pipetted into each well of the microtitre plate and 30 μl of the bacterial suspension was then added. After exactly 15 seconds of bacterial exposure, a 30 μl volume of bacterial cells was withdrawn and transferred to 270 μl of D/E quench solution. After 5 minutes in the D/E quench, the optical density (OD) was measured for each plate in turn at two specific wavelengths (450 nm and 590 nm). These provide a dual check of antimicrobial activity, as the OD450 reading is specific for the yellow colour of D/E quench when bacterial growth is observed, whereas OD590 is specific for the initial purple colour of the D/E quench which is retained if no bacterial growth is observed. After the time zero OD measurements, plates were then incubated at 37° C. overnight (16 hours) before repeating the OD measurements. Delta OD values were calculated by subtracting […]. Bacterial growth is observed as art increase in OD450 and a decrease in ΔOD590. To identify antibacterially efficacious systems (those preventing appreciable bacterial growth after incubation), the following threshold changes in OD readings have been adopted: if (1). OD450 increases by less than 0.2 absorbance unit on incubation and (2). OD590 decreases by less than 0.35 unit on incubation. Conversely, where OD450 increases by more than 0.2 AU and OD590 decreases by more than 0.35 unit after incubation, corresponding to a colour shift from purple to yellow, the test system allows bacterial growth and is not deemed efficacious, four replicate measurements in the same plate have been made for each test system. The number of replicate wells showing either bacterial growth or no growth is also readily assessed by eye by following the colour change.
Dose responses for individual components and binary mixtures of actives at a fixed concentration ratio were generated by sequential dilution of liquors with further surfactant solution to obtain a series of endpoints.
In some selected cases, the combinations were also tested at the weight ratio 1:1.

[2] = test system: Escherichia coli (10536 strain); assay: 15 seconds contact kill assay of actives in water, mean bacterial survival NMBS; details: for NMBS: alone, 15 seconds contact
[3] = test system: Escherichia coli (E. coli—ATCC #10536); assay: Synergy tests: high resolution MBC microtiter plate assay, 15 seconds contact, phosphate buffer containing […] dipropylene glycol; details: for MBC of the component acting alone (QA or QB): complete kill in 15 seconds
From the text: The concentrations and ratios may also vary under different test conditions or with different test methods.
One measure of synergy is the industrially accepted method described by Kull, F. C.; Eisman, P. C.; Sylwestrowicz, H. D. and Mayer, R. L., in Applied Microbiology 9:538-541 (1961), using the ratio determined by the formula: Qa/QA+Qb/QB=Synergy Index (“SI”) wherein: • QA=concentration of compound A (first component) in percent, acting alone, which produced an end point (MBC of Compound A). • Qa=concentration of compound A in percent, in the mixture, which produced an end point. • QB=concentration of compound B (second component) in percent, acting alone, which produced an end point (MBC of Compound B). • Qb=concentration of compound B in percent, in the mixture, which produced an end point.
When the sum of Qa/QA and Qb/QB is greater than one, antagonism is indicated. […] The lower the SI, the greater is the synergy shown by that particular mixture. The minimum biocidal concentration (MBC) of a microbicide is the lowest concentration tested under a specific set of conditions that provides complete kill of the tested microorganisms.
Synergy tests were conducted using standard microtiter plate assays with phosphate buffer containing 3.5% dipropylene glycol (DPG). In this method, a wide range of combinations of chemicals was tested by conducting high resolution MBC assays of Component (A) in the presence of various concentrations of Component (B). High resolution MBCs were determined by adding varying amounts of microbicide to one column of a microtiter plate and doing subsequent […] dilutions using an automated liquid handling system to obtain a series of closely spaced endpoints. The MBC plate was inoculated one column at a time with the test microorganism. An aliquot of the inoculated well was transferred at 15 seconds to a plate containing a neutralizing agent (D/E Neutralizing Broth), mixed and held for 5 minutes before being transferred to a growth plate containing trypticase soy broth (TSB). The TSB plate was incubated at 37° C. and read for the presence/absence of growth at 24 hours. The lowest level tested that provided complete kill (as evidenced by no growth in the microtitre plate) of the test organisms in 15 seconds is the minimum biocidal concentration (MBC).
The synergy of the combinations of the present invention was determined against a bacterium, Escherichia coli (E. coli—ATCC #10536), at a concentration of approximately 1×10^8 bacteria, per mL. This microorganism is representative of natural contaminants in many consumer and industrial applications.

[4] = single active alone at 0.1% w/v
[5] = single active alone at 0.2% w/v
[6] = E. coli 10536, at Qa and Qb, <1 synergy, 1 additivity, >1 antagonism
[7] = single active alone at 0.3% w/v

Row | SMILES | No. of replicates showing growth (out of 4) [1, 4] | Δ OD 450 nm = OD450 (time = 16 hours) − OD450 (time zero), Mean [1, 4] | Δ OD 590 nm OD590 (time = 16 hours) − OD590 (time zero), Mean [1, 4] | No. of replicates showing growth (out of 4) [1, 5] | Δ OD 450 nm = OD450 (time = 16 hours) − OD450 (time zero), Mean [1, 5] | Δ OD 590 nm OD590 (time = 16 hours) − OD590 (time zero), Mean [1, 5] | No. of replicates showing growth (out of 4) ([1]; single active alone at […] w/v) | Δ OD 450 nm = OD450 (time = 16 hours) − OD450 (time zero), Mean ([1]; single active alone at […] w/v) | Δ OD 590 nm OD590 (time = 16 hours) − OD590 (time zero), Mean ([1]; single active alone at […] w/v) | SI (Synergy Index = Qa/QA + Qb/QB) [3, 6] | further results
1 | CCCCc1ccc(O)cc1 [4-butylphenol] | 4 | −0.61 | 0.53 | 4 | −0.54 | 0.58 | 4 | −0.58 | 0.54 |  | 
2 | Cc1cc(O)ccc1C(C)C [4-isopropyl-3-methylphenol] |  |  |  |  |  |  | 4 | −1.53 | 0.23 |  | 
3 | CCCCc1ccc(O)cc1 [4-n-butyl phenol] |  |  |  |  |  |  |  |  |  |  | MBC of phenolic compound ([2]; phenolic compound alone, complete bacterial kill against E. coli): 0.25 % (w/v)
4 | CCCCc1ccc(O)cc1 [4-n-butylphenol] |  |  |  |  |  |  |  |  |  |  | MBC of the component acting alone (QA or QB) ([3]; E. coli 10536): 0.2 weight %; NMBS ([2]; 0.0125% w/v, E. coli): 7.85 log CFU/ml; MBC (minimum biocidal concentration) ([2]; E. coli, in water, component alone): 0.25 % w/v; NMBS ([2]; […] w/v, E. coli): 0 log CFU/ml; MBC [1]: > 2000 µg/mL
5 | CCCc1ccc(O)cc1 [4-propylphenol] | 4 | −1.59 | 0.34 | 4 |  |  | 4 |  |  | 1.00 | 
6 | CCC(C)c1ccc(O)cc1 (stereo not drawn) [4-sec-butylphenol] |  |  |  |  |  |  |  |  |  | 1.00 | 
7 | Cc1ccc(C(C)C)cc1O [5-isopropyl-2-methylphenol] | 4 | −0.52 | 0.62 | 4 | −0.52 | 0.62 | 4 |  |  |  | SI (Synergy Index = Qa/QA + Qb/QB) [3]: 1.00
8 | C/C=C/c1ccccc1O [(E)-2-(prop-1-enyl)phenol] | 4 | −0.60 | 0.59 | 4 | −0.53 | 0.63 | 4 | −0.57 | 0.58 | 1.00 | MBC of the component acting alone (QA or QB) ([3]; E. coli 10536): 0.8 weight %
9 | C=C(C)[C@@H]1CC=C(CO)CC1 [(S)-(−) perillyl alcohol] |  |  |  | 4 | −1.44 | 0.36 | 1 | −0.18 | 0.19 |  | No. of replicates showing growth (out of 4) [1, 7]: 4; Δ OD 450 nm = OD450 (time = 16 hours) − OD450 (time zero), Mean [1, 7]: −1.15; Δ OD 590 nm OD590 (time = 16 hours) − OD590 (time zero), Mean [1, 7]: 0.56
10 | CC1CCC(CO)C(C)C1 (stereo not drawn) [dihydrofloralol, 2,4-Dimethylcyclohexylmethanol] |  |  |  | 4 | −1.39 | 0.41 |  |  |  |  | NMBS ([2]; 0.3% w/v, E. coli): 6.18 log CFU/ml; NMBS ([2]; 0.4% w/v, E. coli): 3.97 log CFU/ml; NMBS ([2]; 0.5% w/v, E. coli): 0.00 log CFU/ml; MBC [1]: 4000 µg/mL
